Laboratory results from patent USRE47193E1, “Selectively substituted quinoline compounds” (EISAI R&D MANAGEMENT CO., LTD., priority 2013, dated 2019).
“Also recorded” adds a separate entry of the source.

System: Pristane DBA/1 lupus disease model
Test: Pristane: DBA/1 lupus disease model
Assay type: in vivo, mouse
Details: for auto-antibody specificities (titers): Pristane model, particularly robust impact on anti-RiboP titers
Description: FIG. 3A through FIG. 3E show results of testing compound ER-899742 in the Pristane: DBA/1 strain lupus disease model. Figure Legend: Female DBA/1 mice at 9 weeks of age were given an intraperitoneal injection of 0.5 ml pristane or PBS. At 9 weeks post-pristane animals were bled for auto-antibody titers. Once-a-day oral dosing with Vehicle (Veh; 0.5% methyl-cellulose) or 33 mg/kg, 100 mg/kg, or 300 mg/kg of ER-899742 was begun 10 weeks after pristane injection and continued for 13 weeks of treatment. Mice were euthanized after 13 weeks of compound treatment, and anti-dsDNA (FIG. 3A), anti-Sm/nRNP (FIG. 3B), anti-histone (FIG. 3C) and anti-RiboP (FIG. 3D) titers were measured in blood plasma samples by ELISA (statistical significance of treatment versus vehicle determined by ANOVA with Dunnett's post-test). (FIG. 3E) The expression of IFN-regulated genes in whole blood was measured by a qPCR panel after 13 weeks of treatment with 300 mg/kg of ER-899742, and an IFN gene signature score was calculated (see Pharmacology Materials and Methods section for details regarding IFN score calculation).
FIG. 5A through FIG. 5D show results of testing ER-899464 in the Pristane disease model in the same experiment as that shown in FIG. 3A through FIG. 3E. Figure Legend: Mice were euthanized after 13 weeks of compound treatment, and anti-dsDNA (FIG. 5A), anti-Sm/nRNP (FIG. 5B), anti-histone (FIG. 5C), and anti-RiboP (FIG. 5D) titers were measured in blood plasma samples by ELISA (statistical significance of treatment versus vehicle determined by ANOVA with Dunnett's post-test).
FIG. 7A through FIG. 7G show the effect of dosing with ER-899742 in Pristane-induced disease in DBA/1J mice. Figure Legend: Female DBA/1 mice at 9 weeks of age were given an intraperitoneal injection of 0.5 ml pristane or PBS. At 10 weeks post-pristane animals were bled for autoantibody titers. Once-a-day oral dosing with Vehicle (Veh; 0.5% methyl-cellulose) or 33 mg/kg, or 300 mg/kg of ER-899742 was begun 11 weeks after pristane injection and continued for 14 weeks of treatment. Mice were euthanized after 14 weeks of compound treatment, and anti-dsDNA (FIG. 7A), anti-RiboP (FIG. 7B), anti-Sm/nRNP (FIG. 7C), and anti-histone (FIG. 7D) titers were measured in blood plasma samples by ELISA (statistical significance of treatment versus vehicle determined by ANOVA with Dunnett's post-test). The same plasma was used to measure total IgG titers by ELISA at the end of dosing (FIG. 7E). […] Pristane-treated mice in this experiment developed arthritis, with swollen joints in the rear paws. Arthritis scores were assigned according to severity, each paw was scored on a scale of 0-4 based on signs of swelling and inflammation. Scores were summed for the two hind paws assessed on each animal, and graphed in FIG. 7F with statistical assessment as for ELISA titers above.
FIG. 8 contains the result of treating for a month with ER-899742 in Pristane-induced disease in DBA/1J mice with advanced disease, after development of high levels of autoantibody. Figure Legend: DBA/1J mice were injected i.p. with pristane at 10 weeks of age. Three months later anti-RiboP and anti-dsDNA titers were taken, and animals randomized into groups with matching mean titers. Groups were sacrificed after one, two or four weeks of oral dosing with ER-899742, and RiboP titers measured in serum.
Mouse Lupus Disease Models.
Mouse lupus disease model strains. Female NZBWF1/J mice were purchased from Jackson Labs (Bar Harbor, Me.), both of which manifest with spontaneous lupus disease. Female DBA/1 mice were purchased from Harlan Laboratories (Indianapolis, Ind.) and at the indicated ages given an intraperitoneal injection of 0.5 ml pristane (2,6,10,14-Tetramethylpentadecane; Sigma, St. Louis, Mo.) to chemically induce lupus disease or of 0.5 ml PBS to generate age-matched, non-diseased control mice.
Assessment of auto-antibody titers by ELISA. […]

[1] = 33 or 300 mg/kg QD oral, 14 weeks of treatment

C[C@@H]1CN(c2ccc(C#N)c3ncccc23)C[C@H](C(=O)NC2CCN(C)CC2)O1 [ER-899464, (2R,6R)-4-(8-cyanoquinolin-5-yl)-6-methyl-N-(1-methylpiperidin-4-yl)morpholine-2-carboxamide]
auto-antibody specificities (titers): suppressed various auto-antibody specificities

C[C@@H]1CN(c2ccc(C#N)c3ncccc23)C[C@H](C(=O)N[C@H]2CNC[C@H]2F)O1.Cl [ER-899742, (2R,6R)-4-(8-cyanoquinolin-5-yl)-N-[(3S,4R)-4-fluoropyrrolidin-3-yl]-6-methylmorpholine-2-carboxamide hydrochloride]
autoantibody against dsDNA and RiboP [1]: Control of autoantibody against dsDNA and RiboP was seen
total IgG titers [1]: minimal changes in overall IgG level
auto-antibody specificities (titers): suppressed various auto-antibody specificities
arthritis scores (hind paws) (Pristane-treated DBA/1 mice, 33 or 300 mg/kg, 14 weeks, hydrochloride): Dose-dependent statistically significant suppression was observed; also recorded: Control of arthritis
reversal of anti-RiboP or DNA titers (advanced disease, after 28 days of oral dosing): no statistically significant reversal
